Results: ChEMBL document CHEMBL1201862, “PubChem BioAssay data set” (2004)
Blank lines part the entries; values can stand above or below the compound they belong to. The source made the active and inactive calls.

Tests used:
[1] = molecular target: T1, Tyrosine-protein phosphatase non-receptor type 22 (Homo sapiens, UniProt Q9Y2R2); assay: SAR LYP1 Fluorescent Assay using OMFP substrate for In Vitro dose response studies - Set 3. [Related pubchem assays (depositor defined):AID1779, AID1784, AID2140, AID2686]; assay type: functional
T1 sequence (Q9Y2R2 whole entry): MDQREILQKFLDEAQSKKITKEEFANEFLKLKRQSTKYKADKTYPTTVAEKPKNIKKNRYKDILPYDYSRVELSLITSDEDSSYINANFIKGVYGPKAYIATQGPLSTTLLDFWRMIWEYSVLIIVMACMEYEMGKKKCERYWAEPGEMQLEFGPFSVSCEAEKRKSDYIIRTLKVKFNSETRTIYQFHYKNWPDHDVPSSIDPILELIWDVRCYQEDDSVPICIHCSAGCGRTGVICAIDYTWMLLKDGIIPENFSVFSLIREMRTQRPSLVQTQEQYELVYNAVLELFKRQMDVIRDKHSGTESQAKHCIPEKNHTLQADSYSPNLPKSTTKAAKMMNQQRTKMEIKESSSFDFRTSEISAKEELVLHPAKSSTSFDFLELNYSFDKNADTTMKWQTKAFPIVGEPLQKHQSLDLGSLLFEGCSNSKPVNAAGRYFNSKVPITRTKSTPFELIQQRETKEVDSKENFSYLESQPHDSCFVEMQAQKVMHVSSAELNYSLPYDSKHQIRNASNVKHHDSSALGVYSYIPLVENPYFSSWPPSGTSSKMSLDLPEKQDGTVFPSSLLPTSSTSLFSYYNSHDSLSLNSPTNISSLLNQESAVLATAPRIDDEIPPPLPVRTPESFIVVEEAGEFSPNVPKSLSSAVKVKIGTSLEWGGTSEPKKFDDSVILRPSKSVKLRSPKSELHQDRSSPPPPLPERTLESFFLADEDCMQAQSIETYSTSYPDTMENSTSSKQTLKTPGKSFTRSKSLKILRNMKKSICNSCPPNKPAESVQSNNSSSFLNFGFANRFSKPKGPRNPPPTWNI

[2] = molecular target: T2, Tyrosine-protein phosphatase non-receptor type 7 (Homo sapiens, UniProt P35236); assay: HePTP (PTPN7) phosphatase inhibitor potency, SAR follow-up, biochemical, set 2 (AID 449736); assay type: functional
T2 sequence (P35236 whole entry): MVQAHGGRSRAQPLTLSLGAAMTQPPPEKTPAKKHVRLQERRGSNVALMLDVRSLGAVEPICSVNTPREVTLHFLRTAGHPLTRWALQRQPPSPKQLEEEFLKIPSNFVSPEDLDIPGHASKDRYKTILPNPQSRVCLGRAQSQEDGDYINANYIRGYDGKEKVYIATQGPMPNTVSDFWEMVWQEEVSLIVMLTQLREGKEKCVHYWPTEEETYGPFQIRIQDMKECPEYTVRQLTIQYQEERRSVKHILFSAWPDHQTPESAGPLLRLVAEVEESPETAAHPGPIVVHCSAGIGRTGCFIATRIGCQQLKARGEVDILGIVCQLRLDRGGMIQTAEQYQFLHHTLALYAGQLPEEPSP

[3] = molecular target: G-protein coupled receptor 35 (Homo sapiens, UniProt Q9HC97); assay: SAR Analysis for the identification of Selective Antagonists of ERK1/2 Activity in GPR35-Overexpressing U2OS Cells. [Related pubchem assays: 2079, 2058 ]; assay type: functional, cell-based
G-protein coupled receptor 35, sequence (Q9HC97 whole entry): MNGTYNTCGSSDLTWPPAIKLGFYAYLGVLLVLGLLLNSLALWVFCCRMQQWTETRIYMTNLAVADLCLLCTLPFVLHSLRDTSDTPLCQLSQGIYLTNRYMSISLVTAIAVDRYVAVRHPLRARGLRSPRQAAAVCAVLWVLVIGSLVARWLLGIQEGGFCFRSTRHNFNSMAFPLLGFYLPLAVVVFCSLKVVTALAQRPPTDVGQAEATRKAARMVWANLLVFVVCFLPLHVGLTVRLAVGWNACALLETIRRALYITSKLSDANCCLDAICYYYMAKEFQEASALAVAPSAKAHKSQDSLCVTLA

[4] = molecular target: G-protein coupled receptor 55 (Homo sapiens, UniProt Q9Y2T6); assay: GPR55 antagonists, SAR follow-up, counter-screen for GPR35 antagonist project, imaging, image-based (AID 2397); assay type: functional
G-protein coupled receptor 55, sequence (Q9Y2T6 whole entry): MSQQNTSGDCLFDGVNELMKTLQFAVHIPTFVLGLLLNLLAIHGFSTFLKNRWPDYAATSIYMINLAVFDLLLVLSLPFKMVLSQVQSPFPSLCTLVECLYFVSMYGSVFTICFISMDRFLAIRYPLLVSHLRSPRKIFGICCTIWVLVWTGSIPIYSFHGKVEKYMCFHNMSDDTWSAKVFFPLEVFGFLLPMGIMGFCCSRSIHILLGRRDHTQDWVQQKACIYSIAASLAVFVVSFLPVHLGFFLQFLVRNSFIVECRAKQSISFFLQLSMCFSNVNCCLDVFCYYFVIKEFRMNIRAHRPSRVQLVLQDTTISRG

[5] = molecular target: T1, Tyrosine-protein phosphatase non-receptor type 22; assay: LYP (PTPN22) phosphatase inhibitor potency, SAR follow-up, biochemical, pCAP fluorogenic substrate, fluorescence, set 3 (AID 449727); assay type: functional
[6] = molecular target: Tyrosine-protein phosphatase non-receptor type 12 (Homo sapiens, UniProt Q05209); assay: SAR Selectivity Analysis of small molecule inhibitors of PEST using pCAP in a fluorescence assay. [Related pubchem assays (depositor defined):AID1779, AID1784, AID2135]; assay type: functional
Tyrosine-protein phosphatase non-receptor type 12, sequence (Q05209 whole entry): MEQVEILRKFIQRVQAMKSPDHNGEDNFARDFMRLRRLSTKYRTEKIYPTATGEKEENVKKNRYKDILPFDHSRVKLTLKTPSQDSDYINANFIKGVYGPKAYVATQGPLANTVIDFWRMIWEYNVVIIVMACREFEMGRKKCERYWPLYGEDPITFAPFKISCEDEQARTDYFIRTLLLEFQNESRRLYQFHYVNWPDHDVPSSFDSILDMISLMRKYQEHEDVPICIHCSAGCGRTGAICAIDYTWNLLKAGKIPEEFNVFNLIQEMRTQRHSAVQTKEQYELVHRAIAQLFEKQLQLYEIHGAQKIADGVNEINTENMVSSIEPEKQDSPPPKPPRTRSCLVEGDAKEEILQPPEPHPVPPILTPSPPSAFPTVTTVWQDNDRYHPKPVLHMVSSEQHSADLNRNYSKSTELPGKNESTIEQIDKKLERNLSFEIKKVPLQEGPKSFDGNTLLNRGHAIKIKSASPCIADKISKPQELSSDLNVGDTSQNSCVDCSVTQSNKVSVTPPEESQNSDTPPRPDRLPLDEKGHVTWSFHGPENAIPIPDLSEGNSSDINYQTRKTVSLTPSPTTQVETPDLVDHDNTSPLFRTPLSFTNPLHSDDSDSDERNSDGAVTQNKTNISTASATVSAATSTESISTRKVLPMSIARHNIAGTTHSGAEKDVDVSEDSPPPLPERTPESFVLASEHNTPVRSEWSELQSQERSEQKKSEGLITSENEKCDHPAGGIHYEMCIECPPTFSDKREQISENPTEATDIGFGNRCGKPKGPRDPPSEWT

HEK293 [7] = assay: NOD1 signaling inhibitors, primary screen, cell-based, luminescence, uHTS (AID 1578); assay type: functional; details: Homo sapiens
HEK293 [8] = assay: cells; assay type: functional, cell-based; details: Homo sapiens
[9] = CRF-BP/CRF-R2 complex antagonists, dose response, cell-based, uHTS hits, 384-well (AID 651639); assay type: functional, Homo sapiens; details: read-out: IC50_Mean
[10] = molecular target: T3, Corticotropin-releasing factor receptor 2/Corticotropin-releasing factor-binding protein (Homo sapiens, UniProt P24387+Q13324); assay: activators of CRF receptor 2 with binding protein – uHTS hits, confirmation (AID 602473); assay type: functional; details: read-out: EC50_Mean
T3 sequence (Q13324 whole entry): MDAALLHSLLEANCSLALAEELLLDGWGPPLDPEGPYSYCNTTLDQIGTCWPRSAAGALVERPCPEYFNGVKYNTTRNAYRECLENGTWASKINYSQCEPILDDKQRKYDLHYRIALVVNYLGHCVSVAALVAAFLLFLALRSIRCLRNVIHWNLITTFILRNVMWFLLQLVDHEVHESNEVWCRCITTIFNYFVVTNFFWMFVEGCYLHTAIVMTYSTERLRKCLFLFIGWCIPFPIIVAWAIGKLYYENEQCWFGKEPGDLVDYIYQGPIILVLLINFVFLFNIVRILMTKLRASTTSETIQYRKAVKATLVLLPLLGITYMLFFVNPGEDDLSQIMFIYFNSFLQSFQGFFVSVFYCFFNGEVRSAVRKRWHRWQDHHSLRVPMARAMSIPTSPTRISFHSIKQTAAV
T3 sequence (P24387 whole entry): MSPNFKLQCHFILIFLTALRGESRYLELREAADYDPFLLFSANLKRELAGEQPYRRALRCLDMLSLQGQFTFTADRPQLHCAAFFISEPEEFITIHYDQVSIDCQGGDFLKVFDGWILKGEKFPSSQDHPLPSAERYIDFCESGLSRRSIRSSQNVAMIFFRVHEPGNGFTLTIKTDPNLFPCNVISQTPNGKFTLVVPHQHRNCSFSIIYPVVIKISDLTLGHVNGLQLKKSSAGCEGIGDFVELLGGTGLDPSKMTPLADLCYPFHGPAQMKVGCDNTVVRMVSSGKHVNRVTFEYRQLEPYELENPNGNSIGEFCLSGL

HEK293 [11] = assay: cells; details: Homo sapiens
HEK293 [12] = assay: NOD2 signaling inhibitors in MDP-stimulated cells, cell-based, uHTS, luminescence (AID 2001); assay type: functional; details: Homo sapiens
[13] = molecular target: T3, Corticotropin-releasing factor receptor 2/Corticotropin-releasing factor-binding protein; assay: Dose Response confirmation of uHTS hits for small molecule antagonists of the CRF-binding protein and CRF-R2 receptor complex.; assay type: functional; details: read-out: IC50_Mean
[14] = molecular target: Nucleotide-binding oligomerization domain-containing protein 1 (Homo sapiens, UniProt Q9Y239); assay: NOD1 signaling inhibitors, SAR follow-up, revised (AID 2333); assay type: functional
Nucleotide-binding oligomerization domain-containing protein 1, sequence (Q9Y239 whole entry, the tested form may be a part): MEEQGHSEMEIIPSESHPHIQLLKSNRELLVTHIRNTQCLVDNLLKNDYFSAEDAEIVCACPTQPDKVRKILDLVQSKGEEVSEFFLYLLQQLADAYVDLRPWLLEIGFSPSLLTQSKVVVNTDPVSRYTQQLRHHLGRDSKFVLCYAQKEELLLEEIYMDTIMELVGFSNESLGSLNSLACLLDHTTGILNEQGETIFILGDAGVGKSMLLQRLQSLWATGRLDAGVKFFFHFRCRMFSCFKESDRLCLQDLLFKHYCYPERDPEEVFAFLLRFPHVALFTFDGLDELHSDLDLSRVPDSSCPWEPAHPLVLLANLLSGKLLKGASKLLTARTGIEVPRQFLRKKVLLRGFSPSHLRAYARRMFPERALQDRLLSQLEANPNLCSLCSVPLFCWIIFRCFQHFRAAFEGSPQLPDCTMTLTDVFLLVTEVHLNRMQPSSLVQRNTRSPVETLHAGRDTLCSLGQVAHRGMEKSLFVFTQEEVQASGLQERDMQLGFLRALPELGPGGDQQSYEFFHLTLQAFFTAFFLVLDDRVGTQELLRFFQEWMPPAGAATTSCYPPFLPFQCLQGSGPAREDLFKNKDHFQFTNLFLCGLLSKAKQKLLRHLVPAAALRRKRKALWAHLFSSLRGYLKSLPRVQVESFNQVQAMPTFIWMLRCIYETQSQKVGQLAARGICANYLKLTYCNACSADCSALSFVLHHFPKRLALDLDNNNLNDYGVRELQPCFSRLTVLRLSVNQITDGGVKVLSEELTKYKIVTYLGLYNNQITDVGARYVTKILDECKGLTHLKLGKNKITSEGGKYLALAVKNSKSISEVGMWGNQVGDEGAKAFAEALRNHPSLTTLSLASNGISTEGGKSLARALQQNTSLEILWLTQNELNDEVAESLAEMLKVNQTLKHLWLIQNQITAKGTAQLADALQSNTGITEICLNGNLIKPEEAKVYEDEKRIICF

HEK293 [15] = assay: cells; assay type: functional, cell-based; details: Homo sapiens; remark: listed apart in the source
[16] = molecular target: T4, Mannose-6-phosphate isomerase (Homo sapiens, UniProt P34949); assay: PMI enzyme inhibitors, confirmation, biochemical, fluorescence intensity (AID 1535)
T4 sequence (P34949 whole entry): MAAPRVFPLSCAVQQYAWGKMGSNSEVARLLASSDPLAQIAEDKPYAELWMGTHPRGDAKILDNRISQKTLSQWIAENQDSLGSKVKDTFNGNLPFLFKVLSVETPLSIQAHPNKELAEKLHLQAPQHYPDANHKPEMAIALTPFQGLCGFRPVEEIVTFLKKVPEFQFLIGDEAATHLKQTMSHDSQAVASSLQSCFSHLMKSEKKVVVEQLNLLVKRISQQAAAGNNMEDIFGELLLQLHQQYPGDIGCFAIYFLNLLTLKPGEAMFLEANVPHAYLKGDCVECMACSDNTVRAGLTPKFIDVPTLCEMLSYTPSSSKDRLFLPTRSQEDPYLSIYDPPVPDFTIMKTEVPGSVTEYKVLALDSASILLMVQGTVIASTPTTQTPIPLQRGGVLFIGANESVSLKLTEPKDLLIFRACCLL

Phosphomannomutase 2 = Phosphomannomutase 2 (Homo sapiens, UniProt O15305); assay: Counter screen SAR assay for PMM2 inhibitors via a fluorescence intensity assay. [Related pubchem assays (depositor defined):AID1545, AID1574]
Phosphomannomutase 2, sequence (O15305 whole entry): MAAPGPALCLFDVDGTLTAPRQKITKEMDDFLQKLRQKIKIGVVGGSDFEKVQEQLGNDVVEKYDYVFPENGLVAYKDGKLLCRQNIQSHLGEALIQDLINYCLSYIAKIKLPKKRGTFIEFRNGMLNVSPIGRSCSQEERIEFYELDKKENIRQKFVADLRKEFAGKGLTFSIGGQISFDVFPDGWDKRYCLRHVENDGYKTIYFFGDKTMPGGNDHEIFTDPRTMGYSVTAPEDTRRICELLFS

CAAX prenyl protease 1 = CAAX prenyl protease 1 (Saccharomyces cerevisiae S288c, UniProt P47154); assay: Ste24 protease inhibitors, dose response, biochemical, S. cerevisiae, plate reader, cherry-pick (AID 488815)
CAAX prenyl protease 1, sequence (P47154 whole entry): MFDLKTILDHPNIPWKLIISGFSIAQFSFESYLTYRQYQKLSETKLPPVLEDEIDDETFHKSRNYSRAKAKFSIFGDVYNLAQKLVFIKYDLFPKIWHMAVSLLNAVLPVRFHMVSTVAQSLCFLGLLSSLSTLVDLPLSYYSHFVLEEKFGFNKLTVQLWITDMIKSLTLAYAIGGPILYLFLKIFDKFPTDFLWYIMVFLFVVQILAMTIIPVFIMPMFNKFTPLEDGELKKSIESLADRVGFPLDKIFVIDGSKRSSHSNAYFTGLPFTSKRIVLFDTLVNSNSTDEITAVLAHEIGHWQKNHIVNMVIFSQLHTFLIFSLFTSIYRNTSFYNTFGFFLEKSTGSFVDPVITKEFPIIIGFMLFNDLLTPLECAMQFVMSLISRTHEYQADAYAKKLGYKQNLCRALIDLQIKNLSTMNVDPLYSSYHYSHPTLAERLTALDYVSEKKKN

CAAX prenyl protease 2 = molecular target: T5, CAAX prenyl protease 2 (Homo sapiens, UniProt Q9Y256); assay: human Rce1 protease inhibitors, dose response, biochemical, yeast membranes, quenched-peptide fluorescence, cherry-pick (AID 588849)
T5 sequence (Q9Y256 whole entry): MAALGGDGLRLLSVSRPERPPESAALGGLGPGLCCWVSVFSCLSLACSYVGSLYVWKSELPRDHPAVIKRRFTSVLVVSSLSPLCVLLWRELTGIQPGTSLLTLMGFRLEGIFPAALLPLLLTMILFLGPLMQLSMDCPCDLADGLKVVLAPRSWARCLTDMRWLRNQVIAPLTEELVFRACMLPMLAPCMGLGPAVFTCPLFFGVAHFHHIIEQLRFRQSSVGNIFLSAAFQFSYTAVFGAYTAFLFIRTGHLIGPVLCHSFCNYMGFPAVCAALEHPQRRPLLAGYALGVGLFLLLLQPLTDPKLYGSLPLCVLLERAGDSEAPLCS

Trypsin = Trypsin (Sus scrofa, UniProt P00761); assay: porcine trypsin inhibitors, dose response, selectivity assay for Rce1 protease inhibitor project, biochemical, quenched peptide fluorescence, cherry-pick (AID 488789)
Trypsin, sequence (P00761 whole entry): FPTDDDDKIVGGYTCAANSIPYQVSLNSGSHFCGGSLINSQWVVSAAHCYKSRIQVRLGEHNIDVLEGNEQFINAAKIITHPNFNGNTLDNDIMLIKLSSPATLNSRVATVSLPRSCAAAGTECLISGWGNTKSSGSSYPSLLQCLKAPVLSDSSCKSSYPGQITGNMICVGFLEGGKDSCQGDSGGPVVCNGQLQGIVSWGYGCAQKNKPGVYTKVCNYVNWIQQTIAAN

IC50 [1]: > 100 µM (inactive)
IC50 [2]: 8.75 µM (active)
IC50 [3]: 2.09 µM (active)
IC50 [4]: > 32 µM (inactive)
IC50 [5]: 73.1 µM (active)
IC50 [6]: 39.4 µM (active)
Compound: O=C(CCCN1C(=O)/C(=C/c2ccc3c(c2)OCO3)SC1=S)Nc1ccc(C(=O)O)c(O)c1

Compound: O=C(Nc1nc2c(F)cc(F)cc2s1)c1ccc([N+](=O)[O-])o1
EC50 (HEK293 [7]): 12 µM (active)
IC50 (HEK293 [8]): > 20 µM (inactive)
IC50 [9]: > 20 µM (inactive)
EC50 [10]: > 53 µM (inactive)
IC50 (HEK293 [11]): > 20 µM (inactive)
IC50 (HEK293 [12]): 15.5 µM (inactive)
IC50 [13]: 4.95 µM (active)
IC50 [14]: 7.18 µM (active)
IC50 (HEK293 [15]): > 20 µM (inactive)

IC50 [16]: 2.91 µM (active)
IC50 (Phosphomannomutase 2): > 100 µM (inactive)
Compound: COc1cc(N=c2ssnc2Cl)cc(OC)c1OC

AC50 (CAAX prenyl protease 1): 6.88 µM (active)
AC50 (CAAX prenyl protease 2): 10.7 µM (active)
AC50 (Trypsin): 34.3 µM (active)
Compound: COc1ccc(OC)c(/C=N/NC(=O)CSc2cc(C)nc3c(OC)cccc23)c1
